Legend:
[1] = test system: ICAM-1 luciferase activity; experiment: ICAM1-luc luciferase assay in TNF-α stimulated BV-2 cells; assay type: cell-based, mouse; conditions: vs scrambled siRNA
Experimental: (§1) If correct that TDP-43 acts as a co-activator of p65, then reducing the levels of TDP-43 should attenuate p65 activation. To reduce the expression levels of TDP-43, microglial BV-2 cells were transfected with either TDP-43 siRNA or scrambled siRNA together with 4κB^wt-luc vectors. 72 hrs after transfection some of the cells were either stimulated with LPS (100 ng/ml) or mock stimulated for 12 hrs. […] To examine the effect of reducing TDP-43 levels on NF-κB activation, BV-2 cells were transfected with pCMV-p65 and 4κB^wt-luc vectors. TDP-43 siRNA decreased activation of NF-κB reporter gene in transfected cells. The decrease in NF-κB activation was about 3-fold for 5 ng pCMV-p65 (n=4, p<0.01) and about 2.5-fold for 10 and 20 ng pCMV-p65 (n=4, p<0.05) and 2-fold for 50 ng pCMV-p65 (n=4, p<0.05) as compared to scrambled siRNA transfected cells (FIG. 5B). To examine the physiological significance of TDP-43 inhibition by siRNA, we transfected BV-2 cells with ICAM1-luc vector together with TDP-43 siRNA or scrambled siRNA. 72 hrs after transfection, cells were stimulated with varying concentrations of TNF-α. […] We also tested the effect of TDP-43 siRNA transfected in bone-marrow derived macrophages (BMMs) from normal mice. We compared the level of innate immunity activation when stimulated with LPS.
(§2) BV2 cells were harvested in 120 μl of cell lysis buffer (Promega, Madison, Wis., USA), and an ensuing 1-min centrifugation step (20,000×g) yielded a luciferase-containing supernatant. In both cases aliquots of 20-μl supernatant were tested for luciferase activity (luciferase assay kit, Promega) and for β-galactosidase activity (β-galactosidase assay kit, Promega) to adjust for transfection efficiency.
To selectively prevent TDP-43 expression, we employed the RNA interference technology. A double-stranded RNA (siRNA) was employed to degrade TDP-43 mRNA and thus to limit the available protein. The siRNA experiments were designed and conducted as described earlier^26. […]

endogenous mouse TDP-43 = experiment: Western blot of TDP-43 after siRNA transfection of BV-2 cells; assay type: cell-based; conditions: vs scrambled siRNA
Experimental: as §1
To selectively prevent TDP-43 expression, we employed the RNA interference technology. […]

NF-κB = experiment: 4κB^wt-luc NF-κB reporter gene assay in BV-2 cells; assay type: cell-based, mouse
Experimental: as §1, §2
(§3) To selectively prevent TDP-43 expression, we employed the RNA interference technology. A double-stranded RNA (siRNA) was employed to degrade TDP-43 mRNA and thus to limit the available protein. The siRNA experiments were designed and conducted as described earlier^26. The siRNAs directed against the murine TDP-43 mRNA (NM_145556.4) consisted of sequences with symmetrical 3′-UU overhangs using siRNA Target Finder (Ambion, Tex., USA). […] To account for the non-sequence-specific effects, scrambled siRNA was used. The sequence of scrambled siRNA is as follows: 5′-[…]-3′ (SEQ ID NO:19) and 5′-[…]-3′ (SEQ ID NO:20). TDP-43 siRNAs or the scrambled siRNAs were suspended in diethyl […] water to yield desired concentration. For in vitro transfection, cells were plated in 24-well plates and transfected with 0.6 μmol/L siRNAs with 2 μL Lipofectamine 2000 (Invitrogen). The cells were then kept for 72 h in OptiMEM medium (Gibco).

[2] = test system: bone-marrow derived macrophages (BMMs); experiment: Real-time RT-PCR of innate immunity genes in LPS stimulated bone-marrow derived macrophages; assay type: cell-based, mouse; conditions: vs scrambled siRNA
Experimental: as §1
Real-time RT-PCR was performed with a LightCycler 480 (Roche Diagnostics) sequence detection system using LightCycler SYBR Green I at the Quebec genomics Centre, Quebec. Total RNA was extracted from cell culture experiments using Trizol reagent (Invitrogen). Total RNA was treated with DNase (Qiagen, Valencia, Calif., USA) to get rid of genomic DNA contaminations. Total RNA was the quantified using Nanodrop and its purity verified by Bioanalyzer 2100 (Agilent Technologies, Santa Clara, Calif., USA). Gene-specific primers were constructed using the GeneTools (Biotools Inc.) software. 3 genes Atp5, Hprt1 and GAPDH were used as internal control genes. The primers used for the analysis of genes are given in S-Table 2 (Swamp et al. J Exp Med 2011, 208, 2429-2447).
as §3

TDP-43 siRNA: double-stranded siRNA against murine TDP-43 mRNA: 5′-AGGAAUCAGCGUGCAUAUAUU-3′ (SEQ ID NO:17), 5′-UAUAUGCACGCUGAUUCCUUU-3′ (SEQ ID NO:18) (listed as RNA, chemistry not given here)
decrease in ICAM-1 luciferase activity ([1]; 0.5 ng/ml TNF-α): 2 fold
decrease in ICAM-1 luciferase activity ([1]; 1.0 ng/ml TNF-α): 2.5 fold
decrease in ICAM-1 luciferase activity ([1]; 1.5 ng/ml TNF-α): 2 fold
endogenous mouse TDP-43 levels (western blot) (endogenous mouse TDP-43): reduced the endogenous mouse TDP-43 levels significantly
decrease in NF-κB activation (4κB^wt-luc reporter) (NF-κB; 5 ng pCMV-p65, vs scrambled siRNA): about 3 fold
decrease in NF-κB activation (4κB^wt-luc reporter) (NF-κB; 10 ng pCMV-p65, vs scrambled siRNA): about 2.5 fold
decrease in NF-κB activation (4κB^wt-luc reporter) (NF-κB; 20 ng pCMV-p65, vs scrambled siRNA): about 2.5 fold
decrease in NF-κB activation (4κB^wt-luc reporter) (NF-κB; 50 ng pCMV-p65, vs scrambled siRNA): 2 fold
reduced levels of Cox-2 mRNA [2]: 2 fold
reduced levels of IL-1β mRNA [2]: 2 fold
reduced levels of IL-6 mRNA [2]: 2.5 fold
reduced levels of IP-10 mRNA [2]: 2 fold
reduced levels of TLR2 mRNA [2]: 1.5 fold
reduced levels of TNF-α mRNA [2]: 3 fold
reduced levels of p65 (RELA) mRNA [2]: 3 fold

— US10060933B2, “Methods for diagnosis and treatment of amyotrophic lateral sclerosis based on an increased level of interaction between TDP-43 polypeptide and NF-KB P65 polypeptide” (UNIVERSITE LAVAL, priority 2011, dated 2018)
